The record followed here is patent publication US7009051B2, “4-(2-pyridyl) piperazines having 5HT7 receptor agonist activity” (Pfizer Inc, priority 2001, dated 2006).

Counter-ions that a name gives are not always drawn.

The term melting point denotes the temperature, or range, at which the solid turns liquid. `c1cncc(COc2cccc(N3CCNCC3)n2)c1` (as salt: HCl) [II, 1-[6-(Pyridin-3-ylmethoxy)-pyridin-2-yl]-piperazine] returned a melting point of 141 to 143 °C.
